Assays:
[1] = Measurement of ATP content in media (luciferin-luciferase reaction, luminometer); conditions: luterial media with SSF (12 hr) compared with luterial media with SSH (12 hr)
Description: SSH and SSF were further added to the media and their effects on ATP production by luterial were examined. A mediacontaining SSF induced higher ATP production by luterialcompared to a mediawith SSH, thus finding a medium mix that is capable of efficiently increasing the ATP production by luterial (FIG. 18).
10 mL of each of four media, including a control, luterial, luterial with SSH (12 hr) and luterial with SSF (12 hr), was placed in a tube, and glucose (100 mg/mL) and ADP substrate (1 mM) were added thereto, followed by culture in water bath at 37° C. At 30-min intervals after the start of the culture, 100 μl of a sample was collected, placed in a tube, and diluted 10-fold with 900 μl of distilled water. Then, 10 μl of the sample was transferred into a fresh tube, and 100 μl of luciferase reagent contained in the ATP kit was added thereto, and measurement was immediately performed five times using a luminometer.

[2] = system: SKOV3 ovarian cancer cell line; assay: MTT assay, growth inhibition of SKOV3 ovarian cancer cell line; format: cell-based; conditions: positive control drug; cell line not stated (SKOV3 and A2780 tested, FIG. 27)

SMILES | ATP concentration in luterial media with additive [1] | IC50 [2] [µM]
O=c1c(O)c(-c2ccc(O)c(O)c2)oc2cc(O)ccc12 [SSF, fisetin] | higher than that in the SSH-added group | –
N.N.[Cl][Pt][Cl] [cisplatin] | – | 100

Reference: US10590384B2, “Luterial and method for isolating and culturing the same” (LUTERION CO., LTD., priority 2014, dated 2020)
